Source: PubChem BioAssay (NCI)
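Compound exposure: 48 hours, 5 concentrations, 96-well plates. Here, GI50 denotes the concentration required for 50% inhibition of growth. TGI denotes the concentration required for complete inhibition of growth.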

Key:
Test in all cases: NCI tumour cell line growth inhibition, 48 h
[1] = test system: OVCAR-4 ovarian
[2] = test system: HT29 colon
[3] = test system: UACC-62 melanoma
[4] = test system: SK-OV-3 ovarian
[5] = test system: MDA-MB-435
[6] = test system: SW-620 colon
[7] = test system: ACHN renal
[8] = test system: SN12C renal
[9] = test system: DU-145 prostate
[10] = test system: OVCAR-3 ovarian
[11] = test system: U251 CNS
[12] = test system: SK-MEL-2 melanoma
[13] = test system: COLO 205 colon

SMILES	TGI [1]	TGI [2]	TGI [3]	TGI [4]	TGI [5]	TGI [6]	TGI [7]	TGI [8]	TGI [9]	TGI [10]	TGI [11]	TGI [12]	TGI [13]	GI50 [5]	GI50 [10]	GI50 [11]
CN(C)c1ccc(/C=c2/c3ccccc3n3c2c2c([n+]3C)CCCC2)cc1	4.58 µM	1.61 µM	1.95 µM	2.07 µM	0.717 µM	10.5 µM	1.99 µM	1.59 µM	2.39 µM	1.17 µM	2.3 µM	0.59 µM	0.168 µM	–	–	–
O=C(Nc1ccccc1)c1cc(S(=O)(=O)NC2=NC(c3ccccc3)c3cc(Cl)ccc3N2)c(SSc2cc(Cl)c(C(=O)Nc3ccccc3)cc2S(=O)(=O)NC2=NC(c3ccccc3)c3cc(Cl)ccc3N2)cc1Cl (stereo not given)	> 100 µM	> 100 µM	> 100 µM	> 100 µM	> 100 µM	> 100 µM	> 100 µM	> 100 µM	> 100 µM	> 100 µM	> 100 µM	> 100 µM	> 100 µM	–	–	–
CCOC(=O)Nc1[nH]cc(-c2ccccc2)c1C#N	> 100 µM	> 100 µM	> 100 µM	> 100 µM	> 100 µM	> 100 µM	> 100 µM	> 100 µM	> 100 µM	> 100 µM	> 100 µM	> 100 µM	> 100 µM	–	–	–
CC1(C)OC(C(=O)Nc2cc3c4ccccc4ccc3c3ccccc23)C(C(=O)N2CCCCC2)O1 (stereo not given)	> 100 µM	> 100 µM	> 100 µM	> 100 µM	> 100 µM	> 100 µM	> 100 µM	> 100 µM	> 100 µM	> 100 µM	> 100 µM	> 100 µM	> 100 µM	–	–	–
COC(=O)C1=C(OC(=O)/C(=C/c2ccc(Cl)cc2)c2ccc(Cl)cc2)C(C(=O)OC)[C@@]2(O)[C@@H](C(=O)OC)[C@H](C)C[C@@H]1[C@@H]2C(=O)OC (stereo not given in full)	> 100 µM	> 100 µM	> 100 µM	> 100 µM	> 100 µM	> 100 µM	> 100 µM	> 100 µM	> 100 µM	> 100 µM	> 100 µM	> 100 µM	> 100 µM	–	–	–
COc1cccc(C2c3cc4c(cc3OC(N3CCCCC3)C2C)OCO4)c1O (stereo not given)	> 100 µM	13.3 µM	28.2 µM	> 79.1 µM	6.82 µM	> 87.8 µM	56.5 µM	19.4 µM	96.9 µM	9.14 µM	16.2 µM	42.5 µM	25.5 µM	–	–	–
Nc1c(C(=O)O)nnc2ccc(Cl)cc12	> 100 µM	> 100 µM	> 100 µM	> 100 µM	> 100 µM	> 100 µM	> 100 µM	> 100 µM	> 100 µM	> 100 µM	> 100 µM	> 100 µM	> 100 µM	–	–	–
Cc1ccnc2[nH]c(-c3ccc4ccccc4c3)cc(=O)c12	4.45 µM	12.4 µM	9 µM	5.32 µM	0.453 µM	13.9 µM	13.6 µM	18.7 µM	35.1 µM	4.51 µM	10.4 µM	28.2 µM	13.3 µM	0.204 µM	1.29 µM	0.644 µM
CC(C)(C)OC(=O)NC1CCCCC1NC(=O)C(=O)NC1CCCCC1NC(=O)OC(C)(C)C (stereo not given)	> 100 µM	> 100 µM	92.9 µM	> 100 µM	> 100 µM	> 100 µM	> 100 µM	> 100 µM	> 100 µM	> 100 µM	> 100 µM	> 100 µM	> 100 µM	–	–	–
O=C1C2SC34c5c2c2ccccc2n5CCC3CCCN14 (stereo not given)	> 100 µM	> 100 µM	> 100 µM	> 100 µM	> 100 µM	> 100 µM	> 100 µM	> 100 µM	> 100 µM	> 100 µM	> 100 µM	> 100 µM	> 100 µM	–	–	–
Cc1ccc2c(c1)C(=S)N1CSCC1c1nncn1-2 (stereo not given)	> 100 µM	> 100 µM	> 100 µM	> 100 µM	> 100 µM	> 100 µM	> 100 µM	> 100 µM	> 100 µM	> 100 µM	> 100 µM	> 100 µM	> 100 µM	–	–	–
C=CCc1cccc2cc(C(=O)NCc3ccccc3)c(=N)oc12	> 100 µM	> 100 µM	> 100 µM	> 100 µM	> 100 µM	> 100 µM	> 100 µM	91 µM	> 100 µM	58.6 µM	> 100 µM	31.5 µM	> 100 µM	–	–	–
Cc1n(Cc2ccccc2)c2c([n+]1C)C(=O)c1ccccc1C2=O	0.812 µM	0.353 µM	0.451 µM	1.65 µM	0.33 µM	0.763 µM	11.4 µM	0.112 µM	0.32 µM	0.0771 µM	0.131 µM	0.388 µM	0.0794 µM	–	–	–
CN(CCSCCN(C)C(=O)OC(C)(C)C)C(=O)OC(C)(C)C	> 100 µM	> 100 µM	> 100 µM	> 100 µM	> 100 µM	> 100 µM	> 100 µM	> 100 µM	> 100 µM	> 100 µM	> 100 µM	> 100 µM	> 100 µM	–	–	–
CN1CCc2c([nH]c3ccccc23)C1	> 100 µM	> 100 µM	> 100 µM	> 100 µM	> 100 µM	> 100 µM	> 100 µM	> 100 µM	> 100 µM	> 100 µM	> 100 µM	> 100 µM	> 100 µM	–	–	–
O=c1oc2ccc3ccccc3c2cc1-c1nc2ccccc2s1	> 100 µM	> 100 µM	> 100 µM	> 100 µM	> 100 µM	> 100 µM	> 100 µM	> 100 µM	> 100 µM	> 100 µM	> 100 µM	> 100 µM	> 100 µM	–	–	–
CN=C(n1ccnc1)n1ccnc1	> 100 µM	> 100 µM	> 100 µM	> 100 µM	> 100 µM	> 100 µM	–	> 100 µM	> 100 µM	> 100 µM	> 100 µM	> 100 µM	> 100 µM	–	–	–
Cc1ccc(/C=N/Nc2cc(C)c3cccc(C)c3n2)s1	> 100 µM	13 µM	43.6 µM	33.5 µM	37.2 µM	> 100 µM	68.5 µM	25.1 µM	> 100 µM	22.2 µM	> 100 µM	33.2 µM	28.7 µM	–	–	–
COc1cc(OC)cc(Oc2nc3ccccc3nc2C(F)(F)F)c1	> 100 µM	> 100 µM	> 100 µM	> 100 µM	> 100 µM	> 100 µM	> 100 µM	> 100 µM	> 100 µM	> 100 µM	> 100 µM	> 100 µM	> 100 µM	–	–	–
CCOC(=O)CCC(NC(=O)Cc1ccc(Nc2nc3cc(F)c(F)cc3nc2C(=O)OCC)cc1)C(=O)OCC (stereo not given)	> 100 µM	> 100 µM	> 100 µM	> 100 µM	> 100 µM	> 100 µM	> 100 µM	> 100 µM	> 100 µM	> 100 µM	> 100 µM	60.4 µM	> 100 µM	–	–	–
O=c1oc2ccccc2cc1-c1cc2ccccn2c1	> 100 µM	> 100 µM	> 100 µM	> 100 µM	> 100 µM	> 100 µM	> 100 µM	–	> 100 µM	> 100 µM	> 100 µM	> 100 µM	> 100 µM	–	–	–
Fc1ccc2c(c1)nc1n2C(c2c(Cl)cccc2Cl)SC1 (stereo not given)	29.7 µM	29.5 µM	26.2 µM	28.3 µM	25 µM	27.6 µM	30.7 µM	31 µM	30.6 µM	26 µM	25.8 µM	29.7 µM	32.9 µM	–	–	–
CC1(C)/C(=N\NC(N)=O)C2CCC1C2 (stereo not given)	> 100 µM	> 100 µM	> 100 µM	> 100 µM	> 100 µM	> 100 µM	> 100 µM	–	> 100 µM	> 100 µM	> 100 µM	> 100 µM	> 100 µM	–	–	–
COC(=O)c1c(O)ccc2c1c1c(n2Cc2cc(OC)cc(OC)c2)C(=O)c2ccccc2C1	44.8 µM	24.6 µM	> 100 µM	> 100 µM	61.7 µM	> 100 µM	–	> 100 µM	> 100 µM	> 100 µM	> 100 µM	> 100 µM	26 µM	–	–	–
CCN(CC)Cc1ccc(C(=S)Nc2ccc(Cl)cc2)s1	34.6 µM	12 µM	23 µM	29.7 µM	22.7 µM	36.8 µM	28.3 µM	–	29.7 µM	37.7 µM	26.2 µM	32.1 µM	5.2 µM	–	–	–
COC(=O)/C=C(\C(=O)OC)C1C(=O)Oc2c(C)c(=O)c3ccccc3n21 (stereo not given)	> 100 µM	> 100 µM	> 100 µM	> 100 µM	> 100 µM	> 100 µM	–	> 100 µM	> 100 µM	> 100 µM	> 100 µM	> 100 µM	> 100 µM	–	–	–
